Laboratory results reported in publication PMC4257560, “Synthesis and Functional Characterization of Substituted Isoquinolinones as MT2-Selective Melatoninergic Ligands” (PLoS ONE, 2014).
Like-named read-outs stand apart in the source and are kept apart here. Marks after values point to notes of the source that are not given here.

How the values were obtained:
MT2 [1] = molecular target: T1, MT2 (Homo sapiens, UniProt P49286); test: Immunodetection of ERK phosphorylation in MT2-CHO cells; format: cell-based; set-up: expressed in transfected cells; settings: for suppression of melatonin-induced ERK phosphorylation in MT2-CHO cells (antagonism): 1 nM melatonin (MLT), 7e and 7f at 10 µM; for ERK phosphorylation in MT2-CHO cells (in words): immunoblot; for suppression of 7b-induced ERK phosphorylation in MT2-CHO cells (antagonism): agonist 7b 100 nM, 7e at 10 µM
T1 sequence (P49286 1-362): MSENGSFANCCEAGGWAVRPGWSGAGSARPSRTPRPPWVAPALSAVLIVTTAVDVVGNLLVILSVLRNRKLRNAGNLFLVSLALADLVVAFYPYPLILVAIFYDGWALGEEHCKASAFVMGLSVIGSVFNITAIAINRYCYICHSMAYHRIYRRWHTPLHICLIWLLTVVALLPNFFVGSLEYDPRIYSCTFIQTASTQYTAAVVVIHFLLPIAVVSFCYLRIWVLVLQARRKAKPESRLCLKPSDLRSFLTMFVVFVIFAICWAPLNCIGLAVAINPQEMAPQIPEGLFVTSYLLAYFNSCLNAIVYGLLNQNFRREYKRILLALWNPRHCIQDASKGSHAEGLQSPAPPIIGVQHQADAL
Procedure: (§1) CHO cells expressing MT1 or MT2 were serum-starved before treating with the indicated concentrations of melatonin or individual tested compounds. Resolved proteins were electrotransferred for immunodetection using phosphorylated ERK-specific antibody.
(§2) (A) CHO cells expressing MT1 or MT2 were treated with the indicated concentrations of 7e or luzindole in the absence or presence of a fixed concentration of melatonin (MLT) (for both MT1 or MT2) or 7b (for MT2 only). Other experimental details were as to the legend of Figure 5. Data shown were representative blots of three separate trials. (B) CHO cells expressing MT2 were treated with increasing concentrations (1 ρM – 1 µM) of melatonin in the absence or presence of 10 µM or 1 µM of 7e or 7f. Other experimental details were as to the legend of Figure 4.
(§3) 2×10^5 cells were seeded into each well of 12-well plates for overnight before serum withdrawal for 4 h to reduce the basal ERK phosphorylation. Tested compounds were diluted in serum-free culture medium at desired concentrations and treated the cells for 5 min. Reactions was stopped by aspiration and then adding 150 µl of lysis buffer with protease inhibitors (50 mM Tris–HCl, pH 7.5, 100 mM NaCl, 5 mM EDTA, 40 mM NaP2O7, 1% Triton X-100, 1 mM dithiothreitol, 200 µM Na3VO4, 100 µM phenylmethylsulfonyl fluoride, 2 µg/ml leupeptin, 4 µg/ml aprotinin, and 0.7 µg/ml pepstain). Cells were allowed to lyse for 30 min at 4°C with agitation, and the collected total cell lysates were cleared by centrifugation. Protein samples were resolved in SDS-PAGE and transferred to nitrocellulose membranes using iBlot system (Invitrogen). Phosphorylated ERK was detected using specific antibodies as described previously. Chemiluminescence signals on the blots were detected on X-ray films.

MT2 [2] = molecular target: T1, MT2; test: biochemical; settings: for Ki: MT2 Ki, calculated from mean pIC50 (Cheng-Prusoff), 1 nM [3H]melatonin, intact CHO cells; for Emax: read-out: MT2 %Resp±SEM (percentage of melatonin-mediated displacement of radioligand binding)
Procedure: (§8) Competitive receptor binding characteristics of melatonin and the 15 tested compounds towards human MT1 and MT2 stably expressed in Chinese hamster ovary (CHO) cells were determined using intact cell preparation pre-incubated with 1 nM [^3H]melatonin.
(§9) Individual melatonin receptor subtype (either MT1 or MT2) was stably co-expressed with a G protein chimera 16z25 in Chinese hamster ovary (CHO) cells, hereafter denoted as CHO-hMT1 and CHO-hMT2, respectively. […] Single cell-derived colonies of the stable lines with sufficiently high receptor density and robust responses in the fluorometric assay (as described below) were isolated from the pool of transfected cell. Usage of these clonal lines was limited to 15 passages to prevent degradation of signal detection.
(§10) Competitive binding assays were performed as described [26]. Cells were suspended in binding buffer (50 mM Tris, 2 mM MgCl2, 1 mM EGTA, pH 7.4) in the density of 1.5×10^5 cell/ml. 1 nM [^3H]melatonin and increasing concentrations of a tested compound was included. Cells were incubated at 4°C for 60 min with intermittent agitation and the reaction was stopped by rapid filtration through GF/C filters pre-soaked in 10 mM Tris, pH 7.4 and washed with 1 ml of prechilled binding buffer. Retained radioactivity was measured with Wallac 1450 Microbeta Jet scintillation counter. Competition curves were drawn as one-site competition nonlinear regression model using GraphPad Prism 3.03 to the data which were means ± SEM of 3–4 independent experiments performed in duplicates. In every assay, melatonin was included as standard reference with highly reproducible Ki values, which were calculated using the Cheng-Prusoff equation.

MT2 [3] = molecular target: T1, MT2; test: Intracellular Ca2+ mobilization (FLIPR) in MT2-CHO cells co-expressing 16z25; format: cell-based; set-up: expressed in transfected cells; settings: for MT2 EC50, Ca2+ mobilization / Ca2+ mobilization activity at MT2 (in words) / EC50: MT2-CHO cells, FLIPR; for shift of melatonin dose-response curve in FLIPR assay, MT2-CHO (competitive antagonism): preincubation with 10 µM or 1 µM of 7e or 7f; for Emax: MT2, percentage of melatonin (MT)-mediated stimulation of Ca2+ signal, read-out: MT2 %Resp ±SEM, Ca2+ signal
Procedure: (§4) Tested compounds in different concentrations were diluted in assay buffer in 5× of the final desired concentrations in a V-bottomed microplate, and both the cell and compound plates were put into the fluorometric imaging plate reader FLIPR^TETRA (Molecular Devices, Sunnyvale, CA). […] The peak of the time course of fluorescence changes was expressed in relative fluorescence units (RFU). Dose response curves were constructed by non-linear regression using GraphPad Prism 3.

MT2 [4] = molecular target: T1, MT2
Procedure: as §8, §9, §10

MT1 [5] = molecular target: T2, MT1 (Homo sapiens, UniProt P48039); test: biochemical; settings: for Emax: read-out: MT1 %Resp±SEM (percentage of melatonin-mediated displacement of radioligand binding)
Procedure: as §8, §9, §10

MT1 [6] = molecular target: T2, MT1; settings: 1 nM [3H]melatonin, intact CHO cells, 4°C 60 min; mean ± SEM of 3–5 trials; NSB = no specific binding for up to 30 µM
Procedure: as §8, §9, §10

MT1 [7] = molecular target: T2, MT1; test: Immunodetection of ERK phosphorylation in MT1-CHO cells; format: cell-based; set-up: expressed in transfected cells; settings: for concentration inducing weak ERK phosphorylation in MT1-CHO cells: immunoblot
Procedure: as §1, §2, §3

MT1 [8] = molecular target: T2, MT1; test: Inhibition of forskolin-stimulated cAMP accumulation in MT1-CHO cells; format: cell-based; set-up: expressed in transfected cells
Procedure: (§5) Both MT1 and MT2 are classified as Gi-coupled receptors with their activation leading to inhibition of intracellular cAMP production. The ability of the tested compounds to activate the endogenously expressed Gi-mediated inhibition of cAMP production was therefore examined.
(§6) All the responses were expressed as the percentage of that induced by forskolin alone (as 100%).
(§7) 2×10^5 cells were seeded in each well of 12-well plates and grown for overnight. Each well was labeled with 1 ml of [^3H]adenine (1 µCi/ml) in F-12K medium containing 1% FBS (vol/vol) for overnight. The labeling media were then replaced by 1 ml of 20 mM HEPES-buffered F-12K containing 1 mM isobutylmethylxanthine (IBMX) and the tested compounds at desired concentrations, and incubated at 37°C for 30 min. The reaction was stopped by aspiration and adding 1 ml prechilled 5% trichloroacetic acid (w/v) with 1 mM ATP, and stored at 4°C for 30 min. [^3H]cAMP was extracted from the pool of labeled adenosine nucleotides by sequential ion-exchange chromatography as previously described. The radioactivity of labeled cAMP and total labeled nucleotide fractions separated by chromatography were estimated by scintillation counting. Inhibition curves were constructed by non-linear regression using GraphPad Prism 3.

MT2 [9] = molecular target: T1, MT2; test: Inhibition of forskolin-stimulated cAMP accumulation in MT2-CHO cells; format: cell-based; set-up: expressed in transfected cells; settings: for IC50: MT2-CHO cells, 50 µM forskolin
Procedure: as §5, §6, §7

MT1 [10] = molecular target: T2, MT1; test: Intracellular Ca2+ mobilization (FLIPR) in MT1-CHO cells co-expressing 16z25; format: cell-based; set-up: expressed in transfected cells; settings: for MT1 %Resp ±SEM, Ca2+ signal: percentage of melatonin (MT)-mediated stimulation of Ca2+ signal
Procedure: as §4

[11] = calculated from mean pEC50, NSR = no significant response for up to 30 µM
[12] = calculated from mean pEC50, NSR = no significant response for up to 30 µM, read-out: MT2 EC50, Ca2+ mobilization
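Throughout, for MT1 pIC50±SEM: competitive radioligand displacement on intact CHO cells stably co-expressing human MT1 together with the G protein chimera 16z25, using rising concentrations of each compound.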
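Throughout, for Selectivity, ratio Ki(MT1)/Ki(MT2): competition binding on intact CHO cells stably co-expressing human MT2 with G protein chimera 16z25, displacing [3H]melatonin at 4°C over 60 min, melatonin run as reference.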
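Throughout, for displacement of pre-incubated [3H]melatonin at MT2 (in words): competition binding on intact CHO cells stably co-expressing human MT2 with G protein chimera 16z25, displacing [3H]melatonin at 4°C over 60 min, melatonin run as reference.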

T2 sequence (P48039 whole entry): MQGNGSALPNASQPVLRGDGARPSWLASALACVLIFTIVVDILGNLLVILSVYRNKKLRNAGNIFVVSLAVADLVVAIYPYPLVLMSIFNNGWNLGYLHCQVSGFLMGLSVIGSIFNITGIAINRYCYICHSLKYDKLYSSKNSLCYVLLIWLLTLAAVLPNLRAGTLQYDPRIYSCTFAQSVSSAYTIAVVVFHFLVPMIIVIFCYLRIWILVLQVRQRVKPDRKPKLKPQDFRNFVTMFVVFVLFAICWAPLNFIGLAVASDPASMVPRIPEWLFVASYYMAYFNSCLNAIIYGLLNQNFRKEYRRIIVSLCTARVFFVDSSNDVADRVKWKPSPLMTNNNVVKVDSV

| Compound | melting point [°C] | suppression of melatonin-induced ERK phosphorylation in MT2-CHO cells (antagonism) (MT2 [1]) | IC50 (MT2 [2]) [µM] | Ki (MT2 [2]) [µM] | Emax (MT2 [2]) [%] | MT2 EC50, Ca2+ mobilization (MT2 [3]; [11]) | Selectivity, ratio Ki(MT1)/Ki(MT2) (MT2 [4]) | IC50 (MT1 [5]) [µM] | Ki (MT1 [5]) [µM] | Emax (MT1 [5]) [%] | MT1 pIC50±SEM (MT1 [6]) | Ca2+ mobilization activity at MT2 (in words) (MT2 [3]) | other results |
| --- | --- | --- | --- | --- | --- | --- | --- | --- | --- | --- | --- | --- | --- |
| CC(=O)NCCc1c(Cc2ccccc2)[nH]c2ccccc12 [luzindole, reference compound] | – | blocked | – | 0.0029 | – | – | – | – | 0.102 | – | – | weak but significant MT2-selective agonistic activity | suppression of melatonin-induced ERK phosphorylation in MT1-CHO cells (antagonism) (MT1 [7]; 1 nM melatonin (MLT)): blocked; effect on basal ERK phosphorylation in MT1-CHO cells (MT1 [7]; at 1 µM): completely eliminated basal ERK phosphorylation; suppression of 7b-induced ERK phosphorylation in MT2-CHO cells (antagonism) (MT2 [1]): blocked; effect on basal ERK phosphorylation in MT2-CHO cells (MT2 [1]; luzindole alone): constantly enhanced |
| COc1cc(COc2cc3ccn(C)c(=O)c3cc2OC)cc(OC)c1 [7c, 6-(3,5-Dimethoxy-benzyloxy)-7-methoxy-2-methylisoquinolin-1(2H)-one] | – | – | 1.17 | 0.35 | 73 ± 9 | – | 37.6 | 57.5 | 13.1 | 41 ± 9 | – | – | MT1 IC50, inhibition of cAMP production (MT1 [8]; MT1-CHO cells, 50 µM forskolin, calculated from mean pIC50, NSR = no significant response for up to 10 µM): NSR ^b; IC50 (MT2 [9]; calculated from mean pIC50, read-out: MT2 IC50, inhibition of cAMP production): 2.46 µM; MT2 %Inhmax ±SEM, extrapolated (MT2 [9]; extrapolated %Inhmax from non-linear regression, MT2-CHO): 72±3 ^c %; concentration inducing weak ERK phosphorylation in MT1-CHO cells (MT1 [7]): > 1 µM; EC50 (MT1 [10]): 0.266 µM; MT1 %Resp ±SEM, Ca2+ signal (MT1 [10]): 65±10%; EC50 (MT2 [3]; [12]): 0.021 µM; Emax (MT2 [3]): 90 ± 16%; concentration to induce exclusive MT2 activation (Ca2+ signal) (MT2 [3]; from concentration response curves, Figure 4): < 10 nM; fold less potent than 7b (EC50, Ca2+ signal, MT2) (MT2 [3]; relative to 7b, MT2-CHO): ~70 fold |
| COc1cccc(COc2cc3ccn(C)c(=O)c3cc2OC)c1 [7b, 7-Methoxy-6-(3-methoxy-benzyloxy)-2-methylisoquinolin-1(2H)-one] | 85 to 87 | – | 0.0891 | 0.0266 | 92 ± 4 | – | 139 | 16.2 | 3.7 | 90 ± 8 | – | – | inhibition of cAMP levels in MT1-CHO cells (in words) (MT1 [8]; forskolin-stimulated): observable inhibition; MT1 %Inhmax ±SEM (MT1 [8]; maximal percentage inhibition of the forskolin-elevated cAMP level, MT1-CHO): 69±8%; IC50 (MT1 [8]; read-out: MT1 IC50, inhibition of cAMP production): 1.2 µM; IC50 (MT2 [9]; mean ± SEM of 2 trials, read-out: MT2 pIC50 ±SEM, inhibition of cAMP production (converted)): 0.0631 µM; MT2 %Inhmax ±SEM (MT2 [9]; maximal percentage inhibition of the forskolin-elevated cAMP level, MT2-CHO): 70±3%; concentration inducing weak ERK phosphorylation in MT1-CHO cells (MT1 [7]): > 1 µM; EC50 (MT1 [10]): 0.0311 µM; MT1 %Resp ±SEM, Ca2+ signal (MT1 [10]): 63±7%; EC50 (MT2 [3]; [12]): 0.0003 µM; EC50 (MT2 [3]; mean ± SEM of 3–5 trials, read-out: MT2 pEC50 ±SEM, Ca2+ mobilization (converted)): 0.000288 µM; Emax (MT2 [3]): 92 ± 11%; displacement of pre-incubated [3H]melatonin at MT2 (in words) (MT2 [4]; competitive binding, intact CHO cells): completely displaced |

Second part, led by results:

| melting point [°C] | suppression of melatonin-induced ERK phosphorylation in MT2-CHO cells (antagonism) (MT2 [1]) | IC50 (MT2 [2]) [µM] | Ki (MT2 [2]) [µM] | Emax (MT2 [2]) [%] | MT2 EC50, Ca2+ mobilization (MT2 [3]; [11]) | Selectivity, ratio Ki(MT1)/Ki(MT2) (MT2 [4]) | IC50 (MT1 [5]) [µM] | Ki (MT1 [5]) [µM] | Emax (MT1 [5]) [%] | MT1 pIC50±SEM (MT1 [6]) | Ca2+ mobilization activity at MT2 (in words) (MT2 [3]) | Compound | other results |
| --- | --- | --- | --- | --- | --- | --- | --- | --- | --- | --- | --- | --- | --- |
| 120 to 122 | partial inhibition | 1.1 | 0.333 | 70 ± 6 | NSR | 6.13 | 8.91 | 2.04 | 38 ± 10 | – | – | COc1cc2c(=O)n(C)ccc2cc1OCc1ccc(C)cc1 [7f, 7-Methoxy-2-methyl-6-(4-methyl-benzyloxy)-isoquinolin-1(2H)-one] | shift of melatonin dose-response curve in FLIPR assay, MT2-CHO (competitive antagonism) (MT2 [3]): parallel right shift |
| 150 to 152 | – | 13.8 | 4.15 | 73 ± 10 | NSR | – | – | – | – | NSB | basically inactive | COc1cc2ccn(C)c(=O)c2cc1OCc1ccc(C)cc1 [14d, 6-Methoxy-2-methyl-7-(4-methyl-benzyloxy)-isoquinolin-1(2H)-one] | ERK phosphorylation in MT2-CHO cells (in words) (MT2 [1]): essentially inactive |
| 132 to 134 | – | 14.8 | 4.46 | 78 ± 8 | NSR | – | – | – | – | NSB | basically inactive | COc1cc2ccn(C)c(=O)c2cc1OCc1ccccc1 [14a, 7-Benzyloxy-6-methoxy-2-methylisoquinolin-1(2H)-one] | ERK phosphorylation in MT2-CHO cells (in words) (MT2 [1]): essentially inactive |
| 170 to 172 | reduced to almost the basal level | 1.12 | 0.334 | 47 ± 5 | NSR | – | – | – | – | NSB | null response | COc1ccc(COc2cc3ccn(C)c(=O)c3cc2OC)cc1 [7e, 7-Methoxy-6-(4-methoxy-benzyloxy)-2-methylisoquinolin-1(2H)-one] | suppression of 7b-induced ERK phosphorylation in MT2-CHO cells (antagonism) (MT2 [1]): significantly suppressed; shift of melatonin dose-response curve in FLIPR assay, MT2-CHO (competitive antagonism) (MT2 [3]): parallel right shift |
